Source: patent US20240315994A1, “SMALL MOLECULE MODULATORS OF FERROPTOSIS” (ARPEGGIO BIOSCIENCES, INC., priority 2021, published 2024)

Legend:
[1] = test system: HT-1080 fibrosarcoma cells; test: HT-1080 viability dose response in presence or absence of ferrostatin-1 or liproxstatin-1; type: cell-based; conditions: HT-1080 cells, 100 μM to 100 nM, 48 hours, with/without 1.5 μM ferrostatin-1
Protocol: To determine whether the reduction in cell viability by the compounds identified in FIG. 1 is driven by induction of ferroptosis, we performed dose response curves for each compound in the presence or absence of ferrostatin-1 or liproxstatin-1, which prevent ferroptosis by functioning as radical trapping antioxidants at cellular membranes. Briefly, HT-1080 fibrosarcoma cells were plated 24 hours prior to treatment with a range of concentrations of each inhibitor compound ranging from 100 μM to 100 nM in the presence or absence of 1 μM liproxstatin-1 or 1.5 µM ferrostatin-1. Cell Titer Glo® was used to read out cell viability after 48 hours compound exposure. Data was collected in triplicate.
Compounds from the Enamine covalent inhibitor library with similar structures to compounds 8216, 6666 or 1816 were further screened for inducing cell death via ferroptosis. Briefly, HT-1080 fibrosarcoma cells were plated on black-sided clear bottom plates 24 hours prior to treatment, with or without the addition of 2× ferrostatin-1, which inhibits the process of ferroptosis and rescues cells from undergoing this form of cell death. Compounds were diluted in DMSO and media then added to the cells for a total of 24 hours at which point cell viability was read out via Cell Titer Glo. Compounds were tested at […] ranging from 50 μM to 5 nM at half log dilutions.
FIG. 14 is a panel of plots 1400 showing relative viability of HT-1080 fibrosarcoma cells exposed to 15 inhibitor compounds with similar structures to 8216, 6666, or 1816 tested over a range of concentrations from 50 μM to 5 nM at half log dilutions in the presence of (red line) and absence of (black line) 1.5 μM ferrostatin-1. Ferrostatin-1 is a lipophilic antioxidant which inhibits the process of ferroptosis and rescues cells from undergoing this form of cell death. The black line is the relative HT-1080 fibrosarcoma cell viability in the absence of ferrostatin-1 and the red line is the relative HT-1080 fibrosarcoma cell viability in the presence of 1.5 μM ferrostatin-1. HT-1080 fibrosarcoma cells were plated on side-blackened, clear bottom plates 24 hours prior to treatment, with or without the addition of 2× ferrostatin-1. Each compound was diluted in DMSO and media and then added to the cells for a total of 24 hours, at which point cell viability was read out via Cell Titer Glo.

[2] = test system: 786-O Renal Clear Cell Carcinoma cells; test: Bodipy-C11 lipid peroxidation staining in 786-O cells; type: cell-based; conditions: for lipid peroxidation (Bodipy-C11 staining): 8216 6.25 μM 2 h, 1816 25 μM 1 h, 3362 12.5 μM 2 h, 0973 50 μM 2 h, 1962 50 μM 2 h
Protocol: To validate that the five ferroptosis-inducing compounds identified in FIG. 3 do cause lipid peroxidation, we used Bodipy-C11 staining in 786-O Renal Clear Cell Carcinoma cells to visualize using microscopy the presence (or absence) of oxidized lipids. Biodipy-C11 is a dye that traffics to lipid membranes and harbors a fluorophore that emits at different wavelengths depending on its oxidation status. Briefly, 786-O Renal Clear Cell Carcinoma cells were plated 24 hours prior to treatment with each of the five ferroptosis-inducing compounds (8216, 1816, 3362, 1962, and 0973) for one or two hours. DMSO was used as a control treatment. Following the treatment period, Hoechst stain (10 μM; a nuclear counterstain) and Bodipy-C11 (200 μM) were added to the cells for 30 minutes and then the cells were imaged using the Opera Phenix high content screening microscope.
FIG. 4B is a panel of plots 410 showing fluorescence images of Biodipy-C11 staining of cells treated with compound 8216 and the controls RSL3 and sodium arsenite. Briefly, 786-O Renal Clear Cell Carcinoma cells were plated 24 hours prior to treatment with compound 8216 and the controls RSL3 and sodium arsenite for 1 hour with and without 1.5 μM of ferrostatin-1. Bodipy C-11 undergoes a shift in emission when lipids become oxidized, non-oxidized lipids are represented in orange and oxidized lipids are green; Hoescht was included as nuclear stain to represent cell bodies.

recombinant GPX4 protein = target: T1, recombinant GPX4 protein (Homo sapiens, UniProt P36969); test: GPX4 inhibitor screening assay (Cayman Chemical cat #701880); type: biochemical; conditions: for GPX4 inhibitory capacity in vitro: 25 μM, one hour incubation with recombinant GPX4; for EC50: stated with the FIG. 6/FIG. 7 binding and GPX4 enzymatic results, assay behind the EC50 not named, read-out: EC50 (half maximal effective concentration)
T1 construct: purchased Cayman Chemical SO960203
T1 sequence (P36969 1-197): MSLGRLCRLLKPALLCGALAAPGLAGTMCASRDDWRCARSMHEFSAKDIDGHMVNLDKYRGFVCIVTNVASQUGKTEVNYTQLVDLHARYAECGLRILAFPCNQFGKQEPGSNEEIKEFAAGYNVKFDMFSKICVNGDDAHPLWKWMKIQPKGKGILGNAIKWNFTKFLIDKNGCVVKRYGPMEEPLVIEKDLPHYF
Protocol: To determine whether the five ferroptosis-inducing compounds (1816, 8216, 3362, 1962, and 0973) inhibit GPX4 enzymatic activity in vitro, we used a commercially available GPX4 inhibitor screening kit (Cayman Chemical cat #701880). This assay measures a compound's ability to prevent cumene hydroperoxide reduction by recombinant GPX4 protein. Briefly, the five ferroptosis-inducing compounds (25 μM) were incubated with recombinant GPX4 protein for one hour before being run in the Cayman Chemicals GPX4 inhibitor screening assay according to manufacturer's recommendations. The assay read out is a change in absorbance between NADPH and NADP. ML162 (25 μM) and RSL3 (25 μM) were used as positive control compounds.
An enzymatic assay that measures the reduction of […] by GPX4 was used to test the ability of compounds 8216, 6666, 8147, and 3793 to inhibit the activity of GPX4. The enzymatic assay was performed using a commercially available kit (Cayman cat #701880). The compounds were tested at 8 concentrations in duplicate with the compound being diluted following manufacturer's instructions. The enzymatic reaction was allowed to continue for 1 hour prior to reading out the kinetic shift in absorbance that occurs as result of GPX4 […].

Row | EC50 (recombinant GPX4 protein) [nM] | Compound | cell death and rescue by ferrostatin-1 [1] | lipid peroxidation (Bodipy-C11 staining) [2] | GPX4 inhibitory capacity in vitro (recombinant GPX4 protein) | Bodipy C-11 emission shift (lipid oxidation) ([2]; 1 hour, with and without 1.5 μM ferrostatin-1)
1 |  | CCCCCN(C(=O)CCl)c1c(N)n(CCCC)c(=O)[nH]c1=O [Compound 1816] | cell death that was rescued by the addition of the antioxidant ferrostatin-1 | some degree of lipid peroxidation was observed | do not inhibit GPX4 enzymatic activity in vitro | 
2 | ~440 | O=C(CCl)N1c2ccccc2OC[C@@H]1c1ccccc1 [Compound 1962] | cell death that was rescued by the addition of the antioxidant ferrostatin-1 | some degree of lipid peroxidation was observed | exhibit potent GPX4 inhibitory capacity | 
3 |  | CCOc1ccc(C[C@@H]2c3cc(OCC)c(OCC)cc3CCN2C(=O)CCl)cc1OCC [Compound 3362] | cell death that was rescued by the addition of the antioxidant ferrostatin-1 | some degree of lipid peroxidation was observed | do not inhibit GPX4 enzymatic activity in vitro | 
4 | ~100 | O=C(CCl)N(Cc1ccc(F)cc1)C1CCCCC1 [Compound 8216] | cell death that was rescued by the addition of the antioxidant ferrostatin-1 | some degree of lipid peroxidation was observed | exhibit potent GPX4 inhibitory capacity | shift in emission color from orange to green
